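1) Cells in 96-well plates. 2) Compound, 48 h, 5 concentrations. 3) Linear interpolation between surrounding doses. 4) Unreached endpoint = highest concentration. The concentration for 50% growth inhibition is given as GI50.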 Activity calls are given as the source filed them. Rule as the data show it: active = GI50 up to about 1.1 µM and inactive = higher.
Assays:
Test in all cases: NCI anticancer screen, dose series, 48 h
SF-295 = test system: SF-295
SW-620 = test system: SW-620
NCI-H23 = test system: NCI-H23
COLO 205 = test system: COLO 205
IGROV-1 = test system: IGROV-1
Malme-3M = test system: Malme-3M
OVCAR-8 = test system: OVCAR-8
SF-539 = test system: SF-539
NCI-H460 = test system: NCI-H460
OVCAR-5 = test system: OVCAR-5
DU-145 = test system: DU-145
HCC 2998 = test system: HCC 2998
HCT-15 = test system: HCT-15
UACC-257 = test system: UACC-257
NCI-H226 = test system: NCI-H226
MOLT-4 = test system: MOLT-4

Which GI50 (SF-295) does the source give for CCOC(=O)CCC(NC(=O)c1ccc(/N=C/c2nc3cc(C(F)(F)F)ccc3nc2-c2ccccc2)cc1)C(=O)OCC (stereo unspecified) here?
The GI50 was 9.84 µM (inactive).

What about the GI50 (SW-620) of the same compound?
The GI50 was > 50 µM (inactive).

What about the GI50 (NCI-H23) of the same compound?
The GI50 was 7.82 µM (inactive).

What about the GI50 (COLO 205) of the same compound?
Its GI50 is 25.5 µM (inactive).

What about the GI50 (IGROV-1) of the same compound?
Its GI50 is 15.3 µM (inactive).

What about the GI50 (Malme-3M) of the same compound?
The GI50 was 6.4 µM (inactive).

And the GI50 (OVCAR-8)?
Its GI50 is 7.33 µM (inactive).

And the GI50 (SF-539)?
The GI50 was 11.4 µM (inactive).

What about the GI50 (NCI-H460) of the same compound?
Its GI50 is 24 µM (inactive).

What about the GI50 (OVCAR-5) of the same compound?
The GI50 was > 50 µM (inactive).

And the GI50 (DU-145)?
The GI50 was 34.1 µM (inactive).

What about the GI50 (HCC 2998) of the same compound?
Its GI50 is > 50 µM (inactive).

And the GI50 (HCT-15)?
The GI50 was over 50 µM.

And the GI50 (UACC-257)?
The GI50 was > 50 µM (inactive).

And the GI50 (NCI-H226)?
Its GI50 is > 50 µM (inactive).

What about the GI50 (MOLT-4) of the same compound?
The GI50 was > 50 µM (inactive).

With O=C1CC(c2ccc(Cl)cc2)=Nc2ccccc2N1 as the compound, how does the GI50 (SF-295) read?
Its GI50 is 86.7 µM (inactive).

And the GI50 (SW-620)?
The GI50 was 18.8 µM (inactive).

And the GI50 (NCI-H23)?
The GI50 was 65.8 µM (inactive).

What about the GI50 (COLO 205) of the same compound?
The GI50 was > 100 µM (inactive).

What about the GI50 (IGROV-1) of the same compound?
Its GI50 is > 100 µM (inactive).

What about the GI50 (Malme-3M) of the same compound?
The GI50 was > 100 µM (inactive).

And the GI50 (OVCAR-8)?
The GI50 was 25.9 µM (inactive).

What about the GI50 (SF-539) of the same compound?
Its GI50 is 96.6 µM (inactive).

And the GI50 (NCI-H460)?
Its GI50 is 34.7 µM (inactive).

What about the GI50 (OVCAR-5) of the same compound?
The GI50 was > 100 µM (inactive).

What about the GI50 (HCC 2998) of the same compound?
The GI50 was 97.1 µM (inactive).

And the GI50 (HCT-15)?
Its GI50 is 65.8 µM.

And the GI50 (UACC-257)?
The GI50 was 80.7 µM (inactive).

And the GI50 (NCI-H226)?
Its GI50 is > 100 µM (inactive).

And the GI50 (MOLT-4)?
Its GI50 is > 100 µM (inactive).

NC(=O)c1ccc(Cl)c([N+](=O)[O-])c1 was tested. Which GI50 (SF-295) did it give?
The GI50 was > 100 µM (inactive).

What about the GI50 (SW-620) of the same compound?
Its GI50 is > 100 µM (inactive).

And the GI50 (NCI-H23)?
Its GI50 is > 100 µM (inactive).

What about the GI50 (COLO 205) of the same compound?
The GI50 was > 100 µM (inactive).

What about the GI50 (IGROV-1) of the same compound?
Its GI50 is > 100 µM (inactive).

What about the GI50 (Malme-3M) of the same compound?
The GI50 was > 100 µM (inactive).

What about the GI50 (OVCAR-8) of the same compound?
Its GI50 is > 100 µM (inactive).

What about the GI50 (SF-539) of the same compound?
Its GI50 is > 100 µM (inactive).

What about the GI50 (NCI-H460) of the same compound?
The GI50 was > 100 µM (inactive).

What about the GI50 (OVCAR-5) of the same compound?
Its GI50 is > 100 µM (inactive).

What about the GI50 (HCC 2998) of the same compound?
Its GI50 is > 100 µM (inactive).

And the GI50 (HCT-15)?
The GI50 was over 100 µM.

And the GI50 (UACC-257)?
Its GI50 is > 100 µM (inactive).

What about the GI50 (NCI-H226) of the same compound?
The GI50 was > 100 µM (inactive).

And the GI50 (MOLT-4)?
The GI50 was > 100 µM (inactive).

For N#Cc1ccc(OCCSCCCCCCCCCCSCCOc2ccc(C#N)cc2)cc1, which GI50 (SF-295) is on record?
Its GI50 is 22.6 µM (inactive).

What about the GI50 (SW-620) of the same compound?
The GI50 was > 100 µM (inactive).

What about the GI50 (NCI-H23) of the same compound?
Its GI50 is > 100 µM (inactive).

What about the GI50 (COLO 205) of the same compound?
Its GI50 is > 100 µM (inactive).

And the GI50 (IGROV-1)?
Its GI50 is > 100 µM (inactive).

What about the GI50 (Malme-3M) of the same compound?
The GI50 was > 100 µM (inactive).

And the GI50 (OVCAR-8)?
The GI50 was > 100 µM (inactive).

What about the GI50 (SF-539) of the same compound?
Its GI50 is > 100 µM (inactive).

What about the GI50 (NCI-H460) of the same compound?
The GI50 was > 100 µM (inactive).

What about the GI50 (OVCAR-5) of the same compound?
The GI50 was > 100 µM (inactive).

And the GI50 (HCC 2998)?
Its GI50 is > 100 µM (inactive).

What about the GI50 (HCT-15) of the same compound?
The GI50 was over 100 µM.

And the GI50 (UACC-257)?
Its GI50 is 2.25 µM (inactive).

What about the GI50 (NCI-H226) of the same compound?
Its GI50 is > 100 µM (inactive).

And the GI50 (MOLT-4)?
Its GI50 is > 100 µM (inactive).

Cc1cccc(C)c1NC(=O)CCC(=O)NNc1nnc(C)n1N was tested. Which GI50 (SF-295) did it give?
Its GI50 is > 100 µM (inactive).

What about the GI50 (SW-620) of the same compound?
Its GI50 is > 100 µM (inactive).

What about the GI50 (NCI-H23) of the same compound?
Its GI50 is > 100 µM (inactive).

What about the GI50 (COLO 205) of the same compound?
The GI50 was > 100 µM (inactive).

And the GI50 (IGROV-1)?
The GI50 was > 100 µM (inactive).

What about the GI50 (Malme-3M) of the same compound?
Its GI50 is > 100 µM (inactive).

What about the GI50 (OVCAR-8) of the same compound?
Its GI50 is > 100 µM (inactive).

And the GI50 (SF-539)?
Its GI50 is > 100 µM (inactive).

What about the GI50 (NCI-H460) of the same compound?
The GI50 was > 100 µM (inactive).

And the GI50 (OVCAR-5)?
Its GI50 is > 100 µM (inactive).

And the GI50 (HCC 2998)?
The GI50 was > 100 µM (inactive).

What about the GI50 (HCT-15) of the same compound?
The GI50 was over 100 µM.

And the GI50 (UACC-257)?
The GI50 was > 100 µM (inactive).

What about the GI50 (NCI-H226) of the same compound?
The GI50 was > 100 µM (inactive).

And the GI50 (MOLT-4)?
Its GI50 is > 100 µM (inactive).

Which results are given for CCOc1ccccc1NC(=O)C(=O)CC(=O)c1c(C)[n+]([O-])c2ccccc2[n+]1[O-]?
GI50 (SF-295): > 100 µM (inactive); GI50 (SW-620): > 100 µM (inactive); GI50 (NCI-H23): 65 µM (inactive); GI50 (COLO 205): 35.2 µM (inactive); GI50 (IGROV-1): > 100 µM (inactive); GI50 (Malme-3M): > 100 µM (inactive); GI50 (OVCAR-8): > 100 µM (inactive); GI50 (SF-539): > 100 µM (inactive); GI50 (NCI-H460): 81.7 µM (inactive); GI50 (OVCAR-5): > 100 µM (inactive); GI50 (HCC 2998): > 100 µM (inactive); GI50 (HCT-15): 67.1 µM; GI50 (UACC-257): > 100 µM (inactive); GI50 (NCI-H226): > 100 µM (inactive); GI50 (MOLT-4): > 100 µM (inactive)

Which GI50 (SF-295) does the source give for CC1CC[C@]2(C(=O)O)CCC3(COC(=O)/C=C\c4ccc(O)cc4)C(=CCC4[C@@]5(C)CC[C@H](O)C(C)(C)C5CC[C@]43C)[C@@H]2[C@H]1C (stereo partly specified) here?
Its GI50 is 17.1 µM (inactive).

And the GI50 (SW-620)?
The GI50 was 27.9 µM (inactive).

What about the GI50 (NCI-H23) of the same compound?
The GI50 was 13.9 µM (inactive).

And the GI50 (COLO 205)?
The GI50 was 23.3 µM (inactive).

What about the GI50 (IGROV-1) of the same compound?
Its GI50 is 11.5 µM (inactive).

And the GI50 (Malme-3M)?
Its GI50 is 34.8 µM (inactive).

What about the GI50 (OVCAR-8) of the same compound?
Its GI50 is 20.1 µM (inactive).

What about the GI50 (SF-539) of the same compound?
Its GI50 is 15.8 µM (inactive).

What about the GI50 (NCI-H460) of the same compound?
Its GI50 is 15.7 µM (inactive).

What about the GI50 (OVCAR-5) of the same compound?
The GI50 was 19.5 µM (inactive).

What about the GI50 (HCC 2998) of the same compound?
Its GI50 is 17.2 µM (inactive).

And the GI50 (HCT-15)?
Its GI50 is 21 µM.

And the GI50 (UACC-257)?
Its GI50 is 31 µM (inactive).

What about the GI50 (NCI-H226) of the same compound?
The GI50 was 18.5 µM (inactive).

And the GI50 (MOLT-4)?
The GI50 was 26.6 µM (inactive).

— ChEMBL document CHEMBL1201862, “PubChem BioAssay data set” (2004)
